Values of other authors in US8791093B2, “Pharmaceutical delivery systems for treatment of substance abuse and other addictions” (priority 2009, dated 2014).

Experiments:
ALDH-I = target: T1, ALDH-I (Homo sapiens, UniProt P05091)
T1 sequence (P05091 18-517): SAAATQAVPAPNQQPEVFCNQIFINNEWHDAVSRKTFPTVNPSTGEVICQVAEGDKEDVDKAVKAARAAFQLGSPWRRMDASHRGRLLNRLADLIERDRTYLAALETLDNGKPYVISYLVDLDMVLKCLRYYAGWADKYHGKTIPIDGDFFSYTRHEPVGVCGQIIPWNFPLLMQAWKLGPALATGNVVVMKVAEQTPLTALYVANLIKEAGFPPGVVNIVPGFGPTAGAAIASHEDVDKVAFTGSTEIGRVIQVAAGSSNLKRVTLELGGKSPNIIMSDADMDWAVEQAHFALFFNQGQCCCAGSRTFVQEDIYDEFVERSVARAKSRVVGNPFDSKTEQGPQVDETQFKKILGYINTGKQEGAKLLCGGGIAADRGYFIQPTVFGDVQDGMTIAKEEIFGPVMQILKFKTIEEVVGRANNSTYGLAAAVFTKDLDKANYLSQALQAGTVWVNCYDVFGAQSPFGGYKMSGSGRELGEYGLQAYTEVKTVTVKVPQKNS

ALDH-II = target: T2, ALDH-II (Homo sapiens, UniProt P00352)
T2 sequence (P00352 1-501): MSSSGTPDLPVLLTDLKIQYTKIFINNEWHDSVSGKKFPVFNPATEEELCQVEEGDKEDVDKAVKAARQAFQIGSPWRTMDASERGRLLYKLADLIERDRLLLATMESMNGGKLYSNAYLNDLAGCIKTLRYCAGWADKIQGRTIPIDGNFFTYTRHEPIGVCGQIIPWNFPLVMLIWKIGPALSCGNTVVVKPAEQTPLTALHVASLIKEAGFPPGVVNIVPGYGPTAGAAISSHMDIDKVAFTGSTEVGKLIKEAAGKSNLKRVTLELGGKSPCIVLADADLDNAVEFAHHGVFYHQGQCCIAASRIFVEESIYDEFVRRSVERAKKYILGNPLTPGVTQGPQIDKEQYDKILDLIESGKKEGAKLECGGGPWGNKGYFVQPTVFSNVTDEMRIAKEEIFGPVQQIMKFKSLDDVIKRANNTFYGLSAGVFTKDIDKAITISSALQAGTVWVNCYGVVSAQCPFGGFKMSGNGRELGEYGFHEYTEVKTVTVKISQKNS

Question: With CCN(CC)C(=S)SSC(=S)N(CC)CC [Disulfiram, diethylcarbamothioylsulfanyl diethylaminomethanedithioate] as the compound, how does the “inhibition of ALDH-I” value (ALDH-I) read?
Answer: Its value is “only slightly”.

Question: What about the “inhibition of ALDH-II” value (ALDH-II) of the same compound?
Answer: Its value is “potent irreversible inhibitor”.
